Source: patent publication EP4574175A1, “PRODRUG FOR ANTI-AGING RELATED DISEASES AND USE METHOD THEREFOR” (BEIJING SUNCELL BIO-MEDICAL CO., LTD., priority 2022, dated 2024)

Columns and labels:
platelets = test: In vivo platelet toxicity test; set-up: species or system C57 mice
Method: (§1) All drugs were mixed in 85% physiological saline, 5% DMSO (Sigma, D8418) and 10% Solutol HS 15 (Sigma, 42966), and administered to mice by intraperitoneal (i.p.) injection. To treat the bleomycin-injured young mice, A13 (2 mg/kg), A13bGa1 (5 mg/kg), or an empty vehicle control was administered three consecutive days per week for four weeks. A1331852 (abbreviated as A13) was purchased from MCE.
A single administration of A13 or A13bG was performed. Female 5-6 week old C57 mice were treated with a single intraperitoneal injection. A13 and A13bG were administered in three different dose groups of 2, 5, and 20 mg/kg. Approximately 50 µl of blood was collected from each mouse at different time points into the EDTA tubes (RAM Scientific) by means of inner canthal blood extraction, and analyzed using a haematology analyzer for a blood routine examination and a platelet counting. Multiple administrations of A13 or A13bG were performed. Female 5-6 week old C57 mice were treated with multiple intraperitoneal injections. A13 and A13bG were administered in three different dose groups of 2, 5 and 20 mg/kg, three consecutive days per week, followed by a 4-day withdrawal for 3 weeks. The time points of administration were in the afternoon of days 0, 1, 2, 7, 8, 9, 14, 15, and 16, and the time points of blood collection and testing were in the morning of days 1, 3, 5, 8, 10, 12, 15, 17, and 19, respectively.
For a blood routine examination, 50 µl of fresh blood was collected from each mouse and immediately mixed with EDTA. Blood samples were analyzed by Celltac Alpha MEK-6400 series haematology analyzer (Nihon Kohden, MEK-6400). Data were expressed as the number of different blood cells or platelets per µl of blood. For the serum biochemical analysis, the blood samples were collected, coagulated for 2 hours at room temperature or overnight at 4°C, and then centrifuged (1000 g, 10 minutes) to obtain serum. A 200 µl of serum was aliquoted and analyzed for alanine aminotransferase (ALT), aspartate aminotransferase (AST), uric acid (UA), and creatinine (CREA) by a chemistry analyzer (Mindray, BS-350E).

[1] = tested on: mouse model of Bleomycin-induced pulmonary fibrosis; test: Bleomycin-induced pulmonary fibrosis mouse model; type: in vivo, C57 mice; conditions: A13 2 mg/kg, A13bGa1 5 mg/kg i.p.
Method: as §1
Bleomycin was purchased from Selleck. […]. Drug treatment was initiated four days after modelling, and the drug was administered three consecutive days per week for four consecutive weeks, after which the mice were executed for material collection.
All animals (including those found dead, dying, and euthanised) were autopsied, and the lung tissues were preserved. The lungs were separated, the fat and other tissues were removed, the surface fluid was absorbed using a filter paper, and the whole lungs were weighed (those found dead, dying, and euthanised) for calculation of the lung weight index. The right lung and bronchiole were fixed in 10% neutral buffered formalin solution, embedded in paraffin, sectioned, prepared into slices, and stained with HE for a histopathological and morphological observation of the lung. The degree of the lesions such as the inflammatory cell infiltration in the lung tissue were graded according to a 4-grade classification (slight, mild, moderate, severe) using a standard terminology for diagnosis and classification. The left lung tissue was clipped and stored temporarily below -60°C. Lung weight index(%) = lung weight/body weight × 100%. [formula]
Masson trichrome stain kit (Solarbio, G1340) was used to detect fibrosis in the lung tissue. The formalin-fixed, and paraffin-embedded lung sections were dewaxed with xylene, and then rehydrated with 100% alcohol, 95% alcohol and distilled water. The sections were then stained according to the manufacturer's instructions. Afterwards, the sections were rapidly dehydrated with 95% alcohol and 100% alcohol, cleaned with xylene and covered with the coverslips. […]

[2] = Plasma metabolic stability; type: in vitro ADME, human; conditions: Huamn plasma, 10 µM, 120 minutes
Method: (§2) Termination of the reaction was accomplished by the addition of 3x volume of acetonitrile and centrifugation at 16000 g for 20 minutes. The supernatant was taken for a LC-MS/MS analysis. The chromatographic column: Waters XSelect HSS T3; the flow rate: 500 µL/min; the eluent: A, water (0.1% formic acid); B, acetonitrile (0.1% formic acid); the gradient elution: 0-1.5 min, 5% B, 1.5-9 min, 5%-80% B, 9-12 min, 80%-100% B, 12-14 min, 100% B, 14-14.3 min, 100%-5% B, 14.3-15 min, 5% B.

[3] = Plasma metabolic stability; type: in vitro ADME; conditions: 10 µM, 120 minutes; for The peak area after normalisation at minute 120, peak 1 oxidative dehydrogenation: metabolite peak
Method: as §2

[4] = Hepatic microsomal metabolic stability
[5] = Hepatic microsomal metabolic stability; remark: listed apart in the source
[6] = Hepatic microsomal metabolic stability; remark: listed apart in the source
[7] = tested on: normal cells (HEF, HELF, BJ, A549, HUVEC, MRC5); test: Cell viability test (CCK-8) on normal uninduced cells, A13 vs A13bGa1; conditions: compared with parent compound A13
Method: Briefly, the human embryonic skin tissues and the fetal lung tissues obtained from the aborted tissues with the patient's informed consent were minced with the forcep and incubated in 1 mg/ml collagenase IV at 37°C for 1-2 hours. After the enzyme treatment, the cells were collected by centrifugation and resuspended in HEF medium (Dulbecco's modified Eagle medium (DMEM, Gibco) containing 10% fetal bovine serum (FBS, Ausbian), 1% GlutaMAX (Gibco), 1% non-essential amino acids (NEAA, Gibco) and 1% penicillin/streptomycin (Gibco). Gibco). Cells were plated on the 10 cm tissue culture dishes and grown in 10% FBS DMEM. […] They were passaged and cryopreserved according to Lonza's method. A549 cells, BJ cells and MRC5 cells were purchased from ATCC and cultured in DMEM medium containing 10% fetal bovine serum (FBS, Ausbian), and 1% penicillin/streptomycin (Gibco).
Cell Counting Kit-8 (CCK-8) assay was used to assess the cell viability. The senescent and non-senescent cells or chondrocytes were seeded into the 96-well plates and cultured overnight. The cells were then treated with control (0.05% DMSO) or different concentrations of the drug to be tested. […] Absorbance was measured at the wavelength of 450 nm.

Cc1c(-c2ccc(N3CCc4cccc(C(=O)Nc5nc6ccccc6s5)c4C3)nc2C(=O)OCc2ccc(O[C@@H]3O[C@H](CO)[C@H](O)[C@H](O)[C@H]3O)c([N+](=O)[O-])c2)cnn1CC12CC3CC(CC(C3)C1)C2 [A13bGa1]
toxic effects on the platelets (platelets; multiple rounds i.p., 3 consecutive days per week for 3 weeks, 2, 5 and 20 mg/kg): significantly reduced | platelet-destroying effect (platelets; single intraperitoneal administration, 20 mg/kg): strong platelet-destroying effect only at the higher dose of 20 mg/kg | toxicity to the platelets (platelets; single intraperitoneal administration, 2, 5 and 20 mg/kg): significantly less toxic to the platelets than the parent compound A13 | pathological manifestations of the pulmonary fibrosis (Masson staining) [1]: improved | lung index ([1]; 3 consecutive days per week for 4 weeks): recovered to the normal level | inflammation and consolidation of the mouse lungs (pathological sections) ([1]; HE staining): significant improvement | The peak area after normalisation at minute 120, Initial drug A13bGa1 [2]: 99.93% | The peak area after normalisation at minute 120, peak 1 oxidative dehydrogenation ([2]; metabolite peak): 0.07% | The peak area after normalisation at minute 120, Initial drug A13bGa1 ([3]; Canine plasma): 99.52% | The peak area after normalisation at minute 120, Initial drug A13bGa1 ([3]; Monkey plasma): 99.96% | The peak area after normalisation at minute 120, Initial drug A13bGa1 ([3]; Mouse plasma): 99.96% | The peak area after normalisation at minute 120, Initial drug A13bGa1 ([3]; Rat plasma): 99.87% | The peak area after normalisation at minute 120, peak 1 oxidative dehydrogenation ([3]; Canine plasma): 0.48% | The peak area after normalisation at minute 120, peak 1 oxidative dehydrogenation ([3]; Monkey plasma): 0.04% | The peak area after normalisation at minute 120, peak 1 oxidative dehydrogenation ([3]; Mouse plasma): 0.04% | The peak area after normalisation at minute 120, peak 1 oxidative dehydrogenation ([3]; Rat plasma): 0.13% | CLint scaled [4]: 17.9 mL/min/kg | The hepatic extraction ratio (E) ([4]; human): 0.86 | The hepatic extraction ratio (E) ([5]; Monkey): 0.69 | microsomal CLint at 1 µM ([5]; monkey, microsomes): 65.3 µL/min/mg | CLint scaled at 1 µM ([5]; monkey, microsomes, The amplified intrinsic clearance Cl int): 9800 mL/min/kg | CLint scaled at 1 µM ([5]; monkey, microsomes, The predicted intrinsic hepatic clearance Cl int): 30.2 mL/min/kg | The hepatic extraction ratio (E) ([6]; Rat): 0.34 | CLint scaled at 1 µM ([6]; rat, microsomes): 18.7 mL/min/kg | microsomal CLint at 1 µM ([6]; rat, microsomes): 15.8 µL/min/mg | toxicity to the normal cells [7]: greatly reduced
